# Source: patent US8927500B2, “Peptidomimetic macrocycles” (Aileron Therapeutics, Inc., priority 2012, dated 2015)
# Like-named read-outs stand apart in the source and are kept apart here. Where a SMILES comes first, the peptide text is derived from it. Bridges are numbered along the chain shown (N, C = ends). [ ]: non-standard residue; d: D form. Phe(4-B(OH)2) = N[C@@H](Cc1ccc(B(O)O)cc1)C(=O)O; R8 = C=CCCCCCC[C@@](C)(N)C(=O)O; Cba = N[C@@H](CC1CCC1)C(=O)O; hLeu = CC(C)CC[C@H](N)C(=O)O; S5 = C=CCCC[C@](C)(N)C(=O)O; Nle = CCCC[C@H](N)C(=O)O; Aib = CC(C)(N)C(=O)O
# What was measured:
# [1] = molecular target: MDM2 (Homo sapiens, UniProt Q00987); assay: Competitive fluorescence polarization assay for MDM2; type: binding; details: competitive FP assay, MDM2
# [2] = molecular target: T1, MDMX (Homo sapiens, UniProt O15151); assay: Competitive fluorescence polarization assay for MDMX; type: binding; details: competitive FP assay
# T1 sequence (O15151 1-125): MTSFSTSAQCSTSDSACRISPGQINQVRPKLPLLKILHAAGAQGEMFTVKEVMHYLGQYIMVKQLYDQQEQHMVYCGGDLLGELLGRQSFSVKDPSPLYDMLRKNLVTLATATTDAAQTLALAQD
# Procedure: Dilute MDMX (In-house, 40 kD) into FP buffer (High salt buffer-200 mM Nacl, 5 mM CHAPS, pH 7.5.) to make 300 nM (2×) working stock solution. • 2. […] Dilute 1 mM (in 100% DMSO) of FAM labeled linear peptide with DMSO to 100 μM (dilution 1:10). Then, dilute from 100 μM to 10 μM with water (dilution 1:10) and then dilute with FP buffer from 10 μM to 40 nM (dilution 1:250). This is the working solution which will be a 10 nM concentration in well (dilution 1:4). Keep the diluted FAM labeled peptide in the dark until use. • 4. […] Dilute 10 mM (in 100% DMSO) with DMSO to 5 mM (dilution 1:2). Then, dilute from 5 mM to 500 μM with H2O (dilution 1:10) and then dilute with FP buffer from 500 μM to 20 μM (dilution 1:25). […] Transfer 10 μl of serial diluted unlabeled peptides to each well which is filled with 20 μl of 300 nM of protein. • 7. Add 10 μl of 10 nM (4×) of FAM labeled peptide into each well and incubate for 3 hr to read.
# Chain of MDM2 (Q00987 1-125): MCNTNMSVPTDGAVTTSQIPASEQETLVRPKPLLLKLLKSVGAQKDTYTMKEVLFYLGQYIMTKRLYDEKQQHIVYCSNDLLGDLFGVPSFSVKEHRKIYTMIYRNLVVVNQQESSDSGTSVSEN
Compound,IC50 ([1]; read-out: IC50 (MDM2)) [nM],Ki ([1]; read-out: Ki (MDM2)) [nM],IC50 ([2]; read-out: IC50 (MDMX)) [nM],Ki ([2]; read-out: Ki (MDMX)) [nM],IC50 ([1]; IC50 (MDM2)) [nM],Ki ([1]; Ki (MDM2)) [nM],IC50 ([2]; IC50 (MDMX)) [nM],Ki ([2]; Ki (MDMX)) [nM]
CCCC[C@H](NC(=O)[C@H](C)NC(=O)[C@H](C)NC(=O)[C@]1(C)CCCC=CCCCCCC[C@@](C)(NC(=O)[C@H](Cc2ccccc2)NC(=O)[C@@H](NC(=O)[C@H](CC(C)C)NC(=O)[C@H](C)NC(C)=O)[C@@H](C)O)C(=O)N[C@@H](CCC(=O)O)C(=O)N[C@@H](Cc2ccc(O)cc2)C(=O)N[C@@H](Cc2c[nH]c3ccccc23)C(=O)N[C@@H](C)C(=O)N[C@@H](CCC(N)=O)C(=O)N[C@@H](CC(C)C)C(=O)N1)C(=O)N[C@@H](C)C(=O)N[C@@H](C)C(N)=O [compound 378] (Ac-ALTF[R8]EYWAQL[S5]AA[Nle]AA-NH2; staple 5-12),10 to 100,< 10,10 to 100,10 to 100,–,–,–,–
CCCC[C@H](NC(=O)[C@H](C)NC(=O)[C@H](C)NC(=O)[C@]1(C)CCCC=CCCCCCC[C@@](C)(NC(=O)[C@H](Cc2ccccc2)NC(=O)[C@@H](NC(=O)[C@H](CC(C)C)NC(=O)[C@H](C)NC(=O)[C@H](C)NC(C)=O)[C@@H](C)O)C(=O)N[C@@H](CCC(=O)O)C(=O)N[C@@H](Cc2ccc(O)cc2)C(=O)N[C@@H](Cc2c[nH]c3ccccc23)C(=O)N[C@@H](C)C(=O)N[C@@H](CCC(N)=O)C(=O)N[C@@H](CC(C)C)C(=O)N1)C(=O)N[C@@H](C)C(=O)N[C@@H](C)C(N)=O [compound 379] (Ac-AALTF[R8]EYWAQL[S5]AA[Nle]AA-NH2; staple 6-13),10 to 100,< 10,10 to 100,10 to 100,–,–,–,–
CCCC[C@H](NC(=O)[C@H](C)NC(=O)[C@H](C)NC(=O)[C@]1(C)CCCC=CCCCCCC[C@@](C)(NC(=O)[C@H](Cc2ccccc2)NC(=O)[C@@H](NC(=O)[C@H](CC(C)C)NC(C)=O)[C@@H](C)O)C(=O)N[C@@H](CCC(=O)O)C(=O)N[C@@H](Cc2ccc(O)cc2)C(=O)N[C@@H](Cc2c[nH]c3ccccc23)C(=O)N[C@@H](C)C(=O)N[C@@H](CCC(N)=O)C(=O)N[C@@H](CC2CCC2)C(=O)N1)C(=O)N[C@@H](C)C(=O)N[C@@H](C)C(N)=O [compound 380] (Ac-LTF[R8]EYWAQ[Cba][S5]AA[Nle]AA-NH2; staple 4-11),10 to 100,< 10,10 to 100,10 to 100,–,–,–,–
CCCC[C@H](NC(=O)[C@H](C)NC(=O)[C@H](C)NC(=O)[C@]1(C)CCCC=CCCCCCC[C@@](C)(NC(=O)[C@H](Cc2ccccc2)NC(=O)[C@@H](NC(=O)[C@H](CC(C)C)NC(C)=O)[C@@H](C)O)C(=O)N[C@@H](CCC(=O)O)C(=O)N[C@@H](Cc2ccc(O)cc2)C(=O)N[C@@H](Cc2c[nH]c3ccccc23)C(=O)N[C@@H](C)C(=O)N[C@@H](CCC(N)=O)C(=O)N[C@@H](CCC(C)C)C(=O)N1)C(=O)N[C@@H](C)C(=O)N[C@@H](C)C(N)=O [compound 381] (Ac-LTF[R8]EYWAQ[hLeu][S5]AA[Nle]AA-NH2; staple 4-11),10 to 100,< 10,10 to 100,10 to 100,–,–,–,–
CCCC[C@H](NC(=O)[C@H](C)NC(=O)[C@H](C)NC(=O)[C@]1(C)CCCC=CCCCCCC[C@@](C)(NC(=O)[C@H](Cc2ccccc2)NC(=O)[C@@H](NC(=O)[C@H](CC(C)C)NC(=O)[C@H](C)NC(C)=O)[C@@H](C)O)C(=O)N[C@@H](CCC(=O)O)C(=O)N[C@@H](Cc2ccc(O)cc2)C(=O)N[C@@H](Cc2c[nH]c3ccccc23)C(=O)N[C@@H](C)C(=O)N[C@@H](CCC(N)=O)C(=O)N[C@@H](CCC(C)C)C(=O)N1)C(=O)N[C@@H](C)C(=O)N[C@@H](C)C(N)=O [compound 382] (Ac-ALTF[R8]EYWAQ[hLeu][S5]AA[Nle]AA-NH2; staple 5-12),10 to 100,< 10,10 to 100,< 10,–,–,–,–
CCCC[C@H](NC(=O)[C@H](C)NC(=O)[C@H](C)NC(=O)[C@]1(C)CCC/C=C/CCCCCC[C@@](C)(NC(=O)[C@H](Cc2ccccc2)NC(=O)[C@@H](NC(=O)[C@H](CC(C)C)NC(C)=O)[C@@H](C)O)C(=O)N[C@@H](C)C(=O)N[C@@H](Cc2ccc(O)cc2)C(=O)N[C@@](C)(Cc2c[nH]c3ccccc23)C(=O)N[C@@H](C)C(=O)N[C@@H](CCC(N)=O)C(=O)N[C@@H](CC(C)C)C(=O)N1)C(=O)N[C@@H](C)C(N)=O [compound 388],100 to 1000,10 to 100,10 to 100,< 10,–,–,–,–
C=CCCCCCC[C@@](C)(NC(=O)[C@H](Cc1ccccc1)NC(=O)[C@@H](NC(=O)[C@H](CC(C)C)NC(C)=O)[C@@H](C)O)C(=O)N[C@@H](C)C(=O)N[C@@H](Cc1ccc(O)cc1)C(=O)N[C@@H](Cc1c[nH]c2ccccc12)C(=O)N[C@@H](C)C(=O)N[C@@H](CCC(N)=O)C(=O)N[C@@H](CC(C)C)C(=O)N[C@@](C)(CCCC=C)C(=O)N[C@@H](C)C(=O)N[C@@H](C)C(=O)N[C@@H](CCCC)C(=O)N[C@@H](C)C(N)=O [compound 411],100 to 1000,100 to 1000,> 1000,> 1000,–,–,–,–
CCCC[C@H](NC(=O)[C@H](C)NC(=O)[C@H](C)NC(=O)C(C)(C)NC(=O)[C@H](CC(C)C)NC(=O)[C@H](CCC(N)=O)NC(=O)[C@H](C)NC(=O)[C@H](Cc1c[nH]c2ccccc12)NC(=O)[C@H](Cc1ccc(O)cc1)NC(=O)[C@H](C)NC(=O)C(C)(C)NC(=O)[C@H](Cc1ccccc1)NC(=O)[C@@H](NC(=O)[C@H](CC(C)C)NC(C)=O)[C@@H](C)O)C(=O)N[C@@H](C)C(N)=O [compound 412],< 10,< 10,10 to 100,< 10,–,–,–,–
CC(=O)N[C@@H](CC(C)C)C(=O)N[C@H](C(=O)N[C@@H](Cc1ccccc1)C(=O)N[C@]1(C)CCCCCCCCCCC[C@@](C)(C(=O)N[C@@H](CO)C(=O)N[C@@H](C)C(=O)N[C@@H](C)C(N)=O)NC(=O)[C@H](CC2CCC2)NC(=O)[C@H](CCC(N)=O)NC(=O)[C@H](C)NC(=O)[C@H](Cc2c[nH]c3ccccc23)NC(=O)[C@H](Cc2ccc(O)cc2)NC(=O)[C@H](CCC(=O)O)NC1=O)[C@@H](C)O [compound 434],10 to 100,< 10,10 to 100,10 to 100,–,–,–,–
CC(=O)N[C@@H](CC(C)C)C(=O)N[C@H](C(=O)N[C@@H](Cc1ccccc1)C(=O)N[C@]1(C)CCCCCCCCCCC[C@@](C)(C(=O)N[C@@H](C)C(=O)N[C@@H](C)C(=O)N[C@@H](C)C(=O)N[C@@H](C)C(=O)N[C@@H](C)C(=O)N[C@H](C)C(N)=O)NC(=O)[C@H](CC(C)C)NC(=O)[C@H](CCC(N)=O)NC(=O)[C@H](C)NC(=O)[C@H](Cc2c[nH]c3ccccc23)NC(=O)[C@H](Cc2ccc(O)cc2)NC(=O)[C@H](CCC(=O)O)NC1=O)[C@@H](C)O [compound 445],–,–,–,–,10 to 100,< 10,100 to 1000,10 to 100
CC(=O)N[C@@H](CC(C)C)C(=O)N[C@H](C(=O)N[C@@H](Cc1ccccc1)C(=O)N[C@]1(C)CCCCCCC=CCCC[C@@](C)(C(=O)N[C@@H](C)C(=O)N[C@@H](C)C(=O)N[C@@H](C)C(=O)N[C@@H](C)C(=O)N[C@@H](C)C(=O)N[C@H](C)C(N)=O)NC(=O)[C@H](CC(C)C)NC(=O)[C@H](CCC(N)=O)NC(=O)[C@H](C)NC(=O)[C@H](Cc2c[nH]c3ccccc23)NC(=O)[C@H](Cc2ccc(B(O)O)cc2)NC(=O)[C@H](CCC(=O)O)NC1=O)[C@@H](C)O [compound 556] (Ac-LTF[R8]E[Phe(4-B(OH)2)]WAQL[S5]AAAAA[dA]-NH2; staple 4-11),–,–,–,–,–,< 10,–,10 to 100
CC(=O)N[C@@H](C)C(=O)N[C@@H](C)C(=O)N[C@@H](C)C(=O)N[C@@H](CC(C)C)C(=O)N[C@H](C(=O)N[C@@H](Cc1ccccc1)C(=O)N[C@]1(C)CCCCCC/C=C/CCC[C@@](C)(C(=O)N[C@@H](C)C(=O)N[C@@H](C)C(=O)N[C@@H](C)C(=O)N[C@@H](C)C(=O)N[C@@H](C)C(=O)N[C@H](C)C(N)=O)NC(=O)[C@H](CC(C)C)NC(=O)[C@H](CCC(N)=O)NC(=O)[C@H](C)NC(=O)[C@H](Cc2c[nH]c3ccccc23)NC(=O)[C@H](Cc2ccc(O)cc2)NC(=O)[C@H](CCC(=O)O)NC1=O)[C@@H](C)O [compound 557] (Ac-AAALTF[R8]EYWAQL[S5]AAAAA[dA]-NH2; staple (E) 7-14),–,–,–,–,–,10 to 100,–,10 to 100
CC(=O)N[C@@H](CCCNC(=N)N)C(=O)N[C@H](C(=O)N[C@@H](Cc1ccccc1)C(=O)N[C@]1(C)CCCCCCC=CCCC[C@@](C)(C(=O)N[C@@H](C)C(=O)N[C@@H](C)C(=O)N[C@@H](C)C(=O)N[C@@H](C)C(=O)N[C@@H](C)C(=O)N[C@H](C)C(N)=O)NC(=O)[C@H](CC(C)C)NC(=O)[C@H](CCC(N)=O)NC(=O)[C@H](C)NC(=O)[C@H](Cc2c[nH]c3ccccc23)NC(=O)[C@H](Cc2ccc(O)cc2)NC(=O)[C@H](CCC(=O)O)NC1=O)[C@@H](C)O [compound 559] (Ac-RTF[R8]EYWAQL[S5]AAAAA[dA]-NH2; staple 4-11),–,–,–,–,–,10 to 100,–,10 to 100
CC(=O)N[C@@H](CC(C)C)C(=O)N[C@H](C(=O)N[C@@H](C)C(=O)N[C@]1(C)CCCCCCC=CCCC[C@@](C)(C(=O)N[C@@H](C)C(=O)N[C@@H](C)C(=O)N[C@@H](C)C(=O)N[C@@H](C)C(=O)N[C@@H](C)C(=O)N[C@H](C)C(N)=O)NC(=O)[C@H](CC(C)C)NC(=O)[C@H](CCC(N)=O)NC(=O)[C@H](C)NC(=O)[C@H](Cc2c[nH]c3ccccc23)NC(=O)[C@H](Cc2ccc(O)cc2)NC(=O)[C@H](CCC(=O)O)NC1=O)[C@@H](C)O [compound 560] (Ac-LTA[R8]EYWAQL[S5]AAAAA[dA]-NH2; staple 4-11),–,–,–,–,–,> 1000,–,> 1000
CC(=O)N[C@@H](CC(C)C)C(=O)N[C@H](C(=O)N[C@@H](Cc1ccccc1)C(=O)N[C@]1(C)CCCCCCC=CCCC[C@@](C)(C(=O)N[C@@H](C)C(=O)N[C@@H](C)C(=O)N[C@@H](C)C(=O)N[C@@H](C)C(=O)N[C@@H](C)C(=O)N[C@H](C)C(N)=O)NC(=O)[C@H](CC(C)C)NC(=O)[C@H](CCC(N)=O)NC(=O)C(C)(C)NC(=O)[C@H](Cc2c[nH]c3ccccc23)NC(=O)[C@H](Cc2ccc(O)cc2)NC(=O)[C@H](CCC(=O)O)NC1=O)[C@@H](C)O [compound 561] (Ac-LTF[R8]EYW[Aib]QL[S5]AAAAA[dA]-NH2; staple 4-11),–,–,–,–,–,< 10,–,10 to 100
